Experimental data reported in patent publication US10336732B2, “1-heterocyclyl isochromanyl compounds and analogs for treating CNS disorders” (Sunovion Pharmaceuticals Inc., priority 2015, dated 2019).

Biological target: T1, 5-HT1A (Homo sapiens, UniProt P08908)
T1 construct: expressed in transfected cells; host or cells: HEK-293 cells
T1 sequence (P08908 1-422): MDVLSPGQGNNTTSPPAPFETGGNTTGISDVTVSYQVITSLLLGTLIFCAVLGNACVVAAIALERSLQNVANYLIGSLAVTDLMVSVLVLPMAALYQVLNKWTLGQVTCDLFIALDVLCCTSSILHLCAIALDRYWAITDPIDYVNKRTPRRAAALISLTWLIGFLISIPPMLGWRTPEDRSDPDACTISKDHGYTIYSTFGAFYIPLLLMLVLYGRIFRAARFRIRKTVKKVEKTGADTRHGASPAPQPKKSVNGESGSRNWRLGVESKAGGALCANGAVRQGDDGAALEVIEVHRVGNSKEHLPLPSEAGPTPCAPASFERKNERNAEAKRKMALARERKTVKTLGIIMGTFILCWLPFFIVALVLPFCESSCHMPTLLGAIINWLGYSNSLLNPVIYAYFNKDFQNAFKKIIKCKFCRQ
Experiment: In vitro radioligand binding assay, 5-HT1A, [3H]8-OH-DPAT
Set-up: concentration or dose not given beside the values
Conditions: human recombinant (HEK-293 cells)
Description: Certain compounds were tested by in vitro binding assays using standard procedures. […] These receptors and assays are well known to those skilled in the art, as exemplified by the following: Abramovitz, M. et al. (2000), Biochem. Biophys. Acta., 1483: 285-293 (EP4, IP (PGI2)); Aharony, D. et al. (1993), Mol. Pharmacol., 44: 356-363 (NK2); Ardati, A. et al. (1997), Mol. Pharmacol., 51: 816-824 (NOP (ORL1)); Bignon, E. et al. (1999), J. Pharmacol. Exp. Ther. 289: 742-751 (CCK1 (CCKA)); Bloomquist, B. T. et al. (1998), Biochem. Biophys. Res. Commun., 243: 474-479 (GAL2); Brockhaus, M. et al. (1990), Proc. Natl. Acad. Sci. U.S.A., 87: 3127-3131 (TNF-α); Brown, G. B. (1986), J. Neurosci., 6: 2064-2070 (Na+ channel (site 2)); Buchan, K. W. et al. (1994), Brit. J. Pharmacol., 112: 1251-1257 (ETA); Cesura, A. M. et al. (1990), Mol. Pharmacol., 37: 358-366 (MAO-A); Choi, D. S. et al. (1994), FEBS Lett., 352: 393-399 (5-HT2B); Clark, A. F. et al. (1996), Invest. Ophtalmol. Vis. Sci., 37: 805-813 (GR); Couvineau, A. et al. (1985), Biochem. J., 231: 139-143 (VPAC1 (VIP1)); Dorje, F. et al. (1991), J. Pharmacol. Exp. Ther., 256: 727-733 (M1, M2, M3, M4); Ferry, G. et al. (2001), Eur. J. Pharmacol., 417: 77-89 (PPARγ); Fuchs, S. et al. (2001), Mol. Med., 7: 115-124 (ETB); Fuhlendorff, J. et al. (1990), Proc. Natl. Acad. Sci. U.S.A., 87: 182-186 (Y2); Ganapathy M E. et al. (1999), J. Pharmacol. Exp. Ther., 289: 251-260 (sigma (non-selective)); Gopalakrishnan, M. et al. (1996), J. Pharmacol. Exp. Ther., 276: 289-297 (N neuronal α4β2); Greengrass, P. and Bremner, R. (1979), Eur. J. Pharmacol., 55: 323-326 (α1 (non-selective)); Grandy, D. K. et al. (1989), Proc. Natl. Acad. Sci. U.S.A., 86: 9762-9766 (D25); Guard, S. et al. (1993), Eur. J. Pharmacol., 240:177-184 (BB (non-selective)); Heuillet, E. et al. (1993), J. Neurochem., 60: 868-876 (NK1, P2X); Hope, A. G. et al. (1996), Brit. J. Pharmacol., 118: 1237-1245 (5-HT3); Hoyer, D. et al. (1985), Eur. J. Pharmacol., 118: 1-12 (5-HT1B); Hugues, M. et al. (1982), J. Biol. Chem., 257: 2762-2769 (5-HT2A, SKCa channel); Joseph, S. S. et al. (2004), Naun.-Sch. Arch. Pharm., 369: 525-532 (β2); Le, M. T. et al. (2005), Eur. J. Pharmacol., 513: 35-45 (AT1); Le Fur, G. et al. (1983), Life Sci., 33: 449-457) (BZD (peripheral); Lee, Y. M. et al. (1993), J. Biol. Chem., 268: 8164-8169 (CCK2 (CCKB)); Leurs, R. et al. (1994), Brit. J. Pharmacol., 112: 847-854 (H2); Levin, M. C. et al. (2002), J. Biol. Chem., 277: 30429-30435 (11); Lewin, A. H. et al. (1989), Mol. Pharmacol., 35: 189-194 (Cl− channel (GABA-gated)); Lukas, R. J. (1986), J. Neurochem., 46: 1936-1941 (N muscle-type); Luthin, D. R. et al. (1995), Mol. Pharmacol., 47: 307-313; (A2A); Mackenzie, R. G. et al. (1994), Eur. J. Pharmacol., 266: 79-85 (D3); Mulheron, J. G. et al. (1994), J. Biol. Chem., 269: 12954-12962 (5-HT1A); Meng, F. et al. (1993), Proc. Natl. Acad. Sci. U.S.A., 90: 9954-9958 (κ (KOP)); Monsma, F. J. et al. (1993), Mol. Pharmacol., 43: 320-327 (5-HT6); Neote, K. et al. (1993), Cell, 72: 415-425 (CCR1); Pacholczyk, T. et al. (1991), Nature, 350: 350-354 (sst (non-selective, norepinephrine transporter)); Peralta, E. G. et al. (1987), Embo. J., 6: 3923-3929 (M3); Pristupa, Z. B. et al. (1994), Mol. Pharmacol., 45: 125-135 (dopamine transporter); Pruneau, D. et al. (1998), Brit. J. Pharmacol., 125: 365-372 (B2); Rees, S. et al. (1994), FEBS Lett., 355: 242-246 (5-HT5a); Reynolds, I. J. et al. (1986), J. Pharmacol. Exp. Ther., 237: 731-738 (Ca2+ channel (L, verapamil site)); Rinaldi-Carmona, M. et al. (1996), J. Pharmacol. Exp. Ther., 278: 871-878 (CB1); Salvatore, C. A. et al. (1993), Proc. Natl. Acad. Sci. U.S.A., 90: 10365-10369 (A3); Sarau, H. M. et al. (1997), J. Pharmacol. Exp. Ther., 281: 1303-1311 (NK3); Schioth, H. B. et al. (1997), Neuropeptides, 31: 565-571 (MC4); Sharples, C. […]

Compared with `Fc1cccc2c1[C@H]([C@@H]1CCCN1)OCC2` [Compound I-1, (S)-2-((R)-8-fluoroisochroman-1-yl)pyrrolidine], `Fc1cccc2c1[C@H]([C@@H]1CCN1)OCC2` [Compound I-83, (S)-2-((R)-8-fluoroisochroman-1-yl)azetidine] is higher in “5HT1a percent inhibition of specific binding” value (from here on “5HT1a percent inhibition”): 79% for the first, 87% for the second.

Going from `Fc1ccc2c(c1)[C@H]([C@@H]1CCCN1)OCC2` [Compound I-5, (2S)-2-((R)-7-fluoroisochroman-1-yl)pyrrolidine] to `Fc1ccc2c(c1)CCO[C@H]2[C@@H]1CCCN1` [Compound I-9, (S)-2-((R)-6-fluoroisochroman-1-yl)pyrrolidine], the “5HT1a percent inhibition” value rises from 52% to 77%.

First: Clc1ccc2c(c1)[C@H]([C@@H]1CCCN1)OCC2 [Compound I-29, (S)-2-((R)-7-chloroisochroman-1-yl)pyrrolidine]
Second: Fc1ccc2c(c1)CCO[C@H]2[C@@H]1CCN1 [Compound I-90, (S)-2-((R)-6-fluoroisochroman-1-yl)azetidine]
The “5HT1a percent inhibition” value of the first is higher: 71% for the first, 64% for the second.
